This is an account of results in paper PMC11172460 (International Journal of Molecular Sciences, 2024).

A short description of the data set: Hydrolysis kinetics in human whole blood. The data set is classed as in vitro ADME. The method, then: Kinetic analysis of Fer-Ger was performed by incubating the compound at 37 °C in heparinized whole blood obtained from healthy human volunteers or from male Wistar rats weighing 200–250 g. In particular, appropriate amounts of stock solution in DMSO were added to a volume of 3 mL of whole blood in order to obtain the final concentration of 30 µM (9.92 µg/mL). Samples (100 μL) were withdrawn at defined time intervals and immediately treated. Specifically, they were firstly added to ice-cold water (500 µL); then, sulfosalicylic acid (10%, 50 µL) and the internal standard (100 μM carbazole dissolved in a mixture of MeOH and H2O 50:50 v/v, 50 µL) were added; finally, 1 mL of H2O-saturated ethyl acetate was used twice as extraction solvent. The samples were centrifuged (13,500× g for 10 min) and the organic phase was evaporated under a nitrogen stream. The residue was re-suspended in a mixture of H2O and CH3CN (50:50 v/v, 150 µL) and centrifuged (16,000× g for 5 min). […]
The Fer-Ger degradation in whole blood or homogenates was analyzed as exponential decay plots of its concentrations versus incubation time, and the related half-life values were obtained from the linear regression of the corresponding semi-logarithmic plots. The quality of the fits was evaluated by considering the correlation coefficients (r) and p values. […]
Fer-Ger and its hydrolysis product, Ger, were quantified by HPLC. […]

Structures are written as SMILES.

Regarding `COc1cc(/C=C/C(=O)OC/C=C(\C)CCC=C(C)C)ccc1O` [Fer-Ger, Geranyl ferulate], the “remaining amount of Fer-Ger” value (after three hours of incubation in human whole blood, % of overall incubated amount) was “about 50%”. The half-life at 30 µM (heparinized whole blood, human whole blood, 37 °C, 30 µM, pseudo-first order kinetic, read-out: half-life (t1/2) of hydrolysis) amounted to 3.23 ± 0.349 h.
